Numbered stars: 1 amine (or outer) side, 2 acyl side, 3 side chain; on linkers, the order of the positions; unused ones are H or OH. Bridge positions count the residues as written; N and C are the ends. Square brackets hold non-standard residues; d marks the D form. Side chains are listed from the residue outwards. Peptide text beside a SMILES is read from it. * marks the point of attachment. C18 diacid = O=C(O)CCCCCCCCCCCCCCCCC(=O)*; γGlu = O=C(O)[C@H](CCC(=O)[*:2])N[*:1]; Dab = NCC[C@H](N)C(=O)O; AEEA = NCCOCCOCC(=O)O; Aib = CC(C)(N)C(=O)O Some results are limits rather than exact numbers.

A short description of the series: Thioflavin T fibrillation assay. The format is physicochemical. Conditions: for Time taken to detect increase in fluorescence intensity: 1 mg/mL in 25 mM sodium acetate buffer pH 4.0, 37° C., 6 days, orbital shaking, >144 h = no increase; for fibril-forming tendency on conjugating pramlintide to a lipid: as seen in Table 7. The source says: Peptide aggregation that form fibrils is an indication of physical instability. Fibril formation in solution poses a significant risk for the stability of injectable peptide drug products. Thioflavin T (ThT) fibrillation assay is a useful tool to assess the aggregation kinetics of a peptide or protein under accelerated and stressed conditions that can be used to forecast the long-term viability of a compound in solution. ThT can selectively bind amyloid fibrils and the resultant complex emits strong fluorescence signal at 482 nm when excited at 450 nm (Anal Biochem. 1989 March; 177 (2): 244-9). Monitoring of the change in fluorescence signal is an established method to study the fibril forming potential of peptides and proteins. ThT (purchased from Sigma Aldrich) stock solution is prepared by dissolving the ThT powder in Milli-Q water and filtered to obtain a 0.25 mM solution. The concentration of the solution is measured at 412 nm using an extinction coefficient of 36 mM-1 cm-1. Test peptides were dissolved at 1 mg/mL in 25 mM sodium acetate buffer pH 4.0. 100 μL aliquot of peptide solution and 5 μL aliquot of ThT solution were placed in a clear bottom black fluorescence 96-well plate. 5 replicates of each test samples were placed in the same row of the plate. Buffer was placed in control wells for baseline correction. All empty wells were filled with water to prevent evaporation. The plate was sealed with aluminium seal and placed in fluorescence plate reader and incubated for 6 days at 37° C. with intermittent orbital shaking at 500 to 750 rpm. The fluorescence intensity was measured every 30 min using excitation at 444 nm and emission at 480 nm. The fibril forming potential of the test peptides was determined by measuring the average time taken to detect an increase in baseline corrected fluorescence intensity.

Regarding `CC[C@H](C)[C@H](NC(=O)[C@H](C)NC(=O)[C@@H]1CCCN1C(=O)[C@H](Cc1ccccc1)NC(=O)[C@H](CC(N)=O)NC(=O)[C@H](CCN)NC(=O)[C@H](CO)NC(=O)[C@H](CO)NC(=O)[C@H](Cc1c[nH]cn1)NC(=O)[C@@H](NC(=O)[C@H](CC(C)C)NC(=O)[C@H](Cc1ccccc1)NC(=O)[C@H](CC(N)=O)NC(=O)[C@H](C)NC(=O)[C@H](CC(C)C)NC(=O)[C@H](CCCNC(=N)N)NC(=O)[C@H](CCC(N)=O)NC(=O)[C@@H](NC(=O)[C@H](C)NC(=O)[C@@H]1CSSC[C@H](NC(=O)[C@@H](N)CCCCNC(=O)CC[C@H](NC(=O)CC[C@H](NC(=O)CCCCCCCCCCCCCCCCC(=O)O)C(=O)O)C(=O)O)C(=O)N[C@@H](CC(N)=O)C(=O)N[C@@H]([C@@H](C)O)C(=O)N[C@@H](C)C(=O)N[C@@H]([C@@H](C)O)C(=O)N1)[C@@H](C)O)C(C)C)C(=O)N[C@@H](CC(C)C)C(=O)N[C@@H](CO)C(=O)N1CCC[C@H]1C(=O)N[C@H](C(=O)N[C@@H](CC(N)=O)C(=O)N[C@H](C(=O)NCC(=O)N[C@@H](CO)C(=O)N[C@@H](CC(N)=O)C(=O)N[C@H](C(=O)N[C@@H](Cc1ccc(O)cc1)C(N)=O)[C@@H](C)O)C(C)C)[C@@H](C)O` [Peptide 8, K(γE-γE-C18diacid)[CNTATC]ATQRLANFLVHSS(Dab)NFPAILSPTNVGSNTY-amide] (H-K([γGlu-γGlu-C18 diacid])CNTATCATQRLANFLVHSS[Dab]NFPAILSPTNVGSNTY-NH2; disulfide 2-7; N-terminus assumed), the “Time taken to detect increase in fluorescence intensity” value (shortened to “Time taken to detect increase”) amounted to 7 h.
Same read-out and setting: then `CC[C@H](C)[C@H](NC(=O)[C@@H]1CCCN1C(=O)CNC(=O)[C@H](Cc1ccccc1)NC(=O)[C@H](CC(N)=O)NC(=O)C(C)(C)NC(=O)[C@H](CO)NC(=O)[C@H](CO)NC(=O)[C@H](Cc1c[nH]cn1)NC(=O)[C@H](CCCNC(=N)N)NC(=O)[C@H](CC(C)C)NC(=O)[C@H](Cc1ccccc1)NC(=O)[C@H](CC(N)=O)NC(=O)[C@H](C)NC(=O)[C@H](CC(C)C)NC(=O)[C@H](CCCNC(=N)N)NC(=O)[C@H](CCC(N)=O)NC(=O)[C@@H](NC(=O)[C@H](C)NC(=O)[C@@H]1CSSC[C@H](NC(=O)[C@@H](N)CCCCNC(=O)CC[C@H](NC(=O)CCCCCCCCCCCCCCCCC(=O)O)C(=O)O)C(=O)N[C@@H](CC(N)=O)C(=O)N[C@@H]([C@@H](C)O)C(=O)N[C@@H](C)C(=O)N[C@@H]([C@@H](C)O)C(=O)N1)[C@@H](C)O)C(=O)N[C@@H](CC(C)C)C(=O)N1CCC[C@H]1C(=O)N1CCC[C@H]1C(=O)N[C@H](C(=O)N[C@@H](CCC(=O)O)C(=O)N[C@H](C(=O)NCC(=O)N[C@@H](CO)C(=O)N[C@@H](CC(N)=O)C(=O)N[C@H](C(=O)N[C@@H](Cc1ccc(O)cc1)C(N)=O)[C@@H](C)O)C(C)C)[C@@H](C)O` [Peptide 44, K(γE-C18diacid)[CNTATC]ATQRLANFLRHSS(Aib)NFGPILPPTEVGSNTY-amide] (H-K([γGlu-C18 diacid])CNTATCATQRLANFLRHSS[Aib]NFGPILPPTEVGSNTY-NH2; disulfide 2-7; N-terminus assumed), with over 144 h.
Take `CC[C@H](C)[C@H](NC(=O)[C@@H]1CCCN1C(=O)CNC(=O)[C@H](Cc1ccccc1)NC(=O)[C@H](CC(N)=O)NC(=O)C(C)(C)NC(=O)[C@H](CO)NC(=O)[C@H](CO)NC(=O)[C@H](Cc1c[nH]cn1)NC(=O)[C@H](CCCNC(=N)N)NC(=O)[C@H](CC(C)C)NC(=O)[C@H](Cc1ccccc1)NC(=O)[C@H](CC(N)=O)NC(=O)[C@H](C)NC(=O)[C@H](CC(C)C)NC(=O)[C@H](CCCNC(=N)N)NC(=O)[C@H](CCC(N)=O)NC(=O)[C@@H](NC(=O)[C@H](C)NC(=O)[C@@H]1CSSC[C@H](NC(=O)[C@@H](N)CCCCNC(=O)CC[C@H](NC(=O)CCCCCCCCCCCCCCCCC(=O)O)C(=O)O)C(=O)N[C@@H](CC(N)=O)C(=O)N[C@@H]([C@@H](C)O)C(=O)N[C@@H](C)C(=O)N[C@@H]([C@@H](C)O)C(=O)N1)[C@@H](C)O)C(=O)N[C@@H](CC(C)C)C(=O)N1CCC[C@H]1C(=O)N1CCC[C@H]1C(=O)N[C@H](C(=O)N[C@@H](CC(N)=O)C(=O)N[C@H](C(=O)NCC(=O)N[C@@H](CO)C(=O)N[C@@H](CC(N)=O)C(=O)N[C@H](C(=O)N[C@@H](Cc1ccc(O)cc1)C(N)=O)[C@@H](C)O)C(C)C)[C@@H](C)O` [Peptide 48, K(γE-C18diacid)[CNTATC]ATQRLANFLRHSS(Aib)NFGPILPPTNVGSNTY-amide] (H-K([γGlu-C18 diacid])CNTATCATQRLANFLRHSS[Aib]NFGPILPPTNVGSNTY-NH2; disulfide 2-7; N-terminus assumed): the “Time taken to detect increase” value is over 144 h.
Regarding `CC[C@H](C)[C@H](NC(=O)[C@@H]1CCCN1C(=O)CNC(=O)[C@H](Cc1ccccc1)NC(=O)[C@H](CC(N)=O)NC(=O)[C@H](CC(N)=O)NC(=O)[C@H](CO)NC(=O)[C@H](CO)NC(=O)[C@H](Cc1c[nH]cn1)NC(=O)[C@@H](NC(=O)[C@H](CC(C)C)NC(=O)[C@H](Cc1ccccc1)NC(=O)[C@H](CC(N)=O)NC(=O)[C@H](C)NC(=O)[C@H](CC(C)C)NC(=O)[C@H](CCCNC(=N)N)NC(=O)[C@H](CCC(N)=O)NC(=O)[C@@H](NC(=O)[C@H](C)NC(=O)[C@@H]1CSSC[C@H](NC(=O)[C@@H](N)CCCCNC(=O)CC[C@H](NC(=O)CC[C@H](NC(=O)CCCCCCCCCCCCCCCCC(=O)O)C(=O)O)C(=O)O)C(=O)N[C@@H](CC(N)=O)C(=O)N[C@@H]([C@@H](C)O)C(=O)N[C@@H](C)C(=O)N[C@@H]([C@@H](C)O)C(=O)N1)[C@@H](C)O)C(C)C)C(=O)N[C@@H](CC(C)C)C(=O)N1CCC[C@H]1C(=O)N1CCC[C@H]1C(=O)N[C@H](C(=O)N[C@@H](CC(N)=O)C(=O)N[C@H](C(=O)NCC(=O)N[C@@H](CO)C(=O)N[C@@H](CC(N)=O)C(=O)N[C@H](C(=O)N[C@@H](Cc1ccc(O)cc1)C(N)=O)[C@@H](C)O)C(C)C)[C@@H](C)O` [Peptide 5] (H-K([γGlu-γGlu-C18 diacid])CNTATCATQRLANFLVHSSNNFGPILPPTNVGSNTY-NH2; disulfide 2-7; N-terminus assumed), the “Time taken to detect increase” value is 7 h and the “fibril-forming tendency on conjugating pramlintide to a lipid” value was “increases the fibril-forming tendency”.
As for `CC[C@H](C)[C@H](NC(=O)[C@@H]1CCCN1C(=O)CNC(=O)[C@H](Cc1ccccc1)NC(=O)[C@H](CC(N)=O)NC(=O)[C@H](CC(N)=O)NC(=O)[C@H](CO)NC(=O)[C@H](CO)NC(=O)[C@H](Cc1c[nH]cn1)NC(=O)[C@@H](NC(=O)[C@H](CC(C)C)NC(=O)[C@H](Cc1ccccc1)NC(=O)[C@H](CC(N)=O)NC(=O)[C@H](C)NC(=O)[C@H](CC(C)C)NC(=O)[C@H](CCCNC(=N)N)NC(=O)[C@H](CCC(N)=O)NC(=O)[C@@H](NC(=O)[C@H](C)NC(=O)[C@@H]1CSSC[C@H](NC(=O)[C@@H](N)CCCCNC(=O)COCCOCCNC(=O)COCCOCCNC(=O)CC[C@H](NC(=O)CCCCCCCCCCCCCCCCC(=O)O)C(=O)O)C(=O)N[C@@H](CC(N)=O)C(=O)N[C@@H]([C@@H](C)O)C(=O)N[C@@H](C)C(=O)N[C@@H]([C@@H](C)O)C(=O)N1)[C@@H](C)O)C(C)C)C(=O)N[C@@H](CC(C)C)C(=O)N1CCC[C@H]1C(=O)N1CCC[C@H]1C(=O)N[C@H](C(=O)N[C@@H](CC(N)=O)C(=O)N[C@H](C(=O)NCC(=O)N[C@@H](CO)C(=O)N[C@@H](CC(N)=O)C(=O)N[C@H](C(=O)N[C@@H](Cc1ccc(O)cc1)C(N)=O)[C@@H](C)O)C(C)C)[C@@H](C)O` [Peptide 6] (H-K([AEEA-AEEA-γGlu-C18 diacid])CNTATCATQRLANFLVHSSNNFGPILPPTNVGSNTY-NH2; disulfide 2-7; N-terminus assumed), the “Time taken to detect increase” value was found to be 15 h and the “fibril-forming tendency on conjugating pramlintide to a lipid” value is given as “increases the fibril-forming tendency”.

These data come from patent US12371464B2, “Polypeptides and uses thereof” (MEDIMMUNE LIMITED, priority 2020, dated 2025).
